In ChEMBL document CHEMBL1926599, “Bis(oxyphenylene)benzimidazoles: a novel class of anti-Plasmodium falciparum agents” (Bioorg Med Chem, 2011):
Active and inactive are the calls of the source. No cut-off for these calls is given here.

Columns and labels:
[1] = system: Leishmania donovani; experiment: Antileishmanial activity against Leishmania donovani MHOM-ET-67/L82 after 72 hrs by resazurin-based spectrophotometric assay; format: functional, organism-based; details: MHOM-ET-67/L82, 72 h
[2] = Selectivity ratio of IC50 for rat L6 cells to IC50 for Plasmodium falciparum K1; format: ADME, cell-based; details: read-out: Ratio IC50
[3] = system: Plasmodium falciparum; experiment: Antiplasmodial activity against chloroquine and pyrimethamine-resistant Plasmodium falciparum K1 assessed as inhibition of [3H]hypoxanthine incorporation incubated for 48 hrs prior to [3H] hypoxanthine addition measured after 24 hrs by liquid scintillation counting; format: functional, organism-based
[4] = system: Trypanosoma brucei rhodesiense; experiment: Antitrypanosomal activity against bloodstream form of Trypanosoma brucei rhodesiense STIB 900 after 70 hrs by resazurin-based spectrophotometric assay; format: functional, organism-based; details: STIB 900, 70 h
[5] = system: Trypanosoma cruzi; experiment: Antitrypanosomal activity against trypomastigote form of Trypanosoma cruzi Tulahuen C2C4 expressing Lac Z infected in rat L6 cells after 96 hrs by spectrophotometry; format: functional, organism-based; details: Tulahuen C2C4, L6, 96 h
[6] = system: L6; experiment: Cytotoxicity against rat L6 cells after 72 hrs by resazurin-based spectrophotometric assay; format: cell-based; details: L6, 72 h
[7] = system: Entamoeba histolytica; experiment: Antiprotozoal activity against Entamoeba histolytica Hk-9 trophozoites after 70 hrs by resazurin-based spectrophotometric assay; format: functional, organism-based; details: Hk-9, 70 h
[8] = system: Giardia intestinalis; experiment: Antiprotozoal activity against Giardia intestinalis G1 after 70 hrs by resazurin-based spectrophotometric assay; format: functional, organism-based; details: Giardia duodenalis, G1, 70 h
[9] = Selectivity ratio of IC50 for rat L6 cells to IC50 for Leishmania donovani MHOM-ET-67/L82; format: ADME, cell-based; details: read-out: Ratio IC50
[10] = Selectivity ratio of IC50 for rat L6 cells to IC50 for Entamoeba histolytica Hk-9; format: ADME, cell-based; details: read-out: Ratio IC50
[11] = Inhibition of beta-hematin formation in aqueous acetate buffer; format: functional
[12] = Selectivity ratio of IC50 for rat L6 cells to IC50 for bloodstream form of Trypanosoma brucei rhodesiense STIB 900; format: ADME, cell-based; details: read-out: Ratio IC50
[13] = Selectivity ratio of IC50 for rat L6 cells to IC50 for Giardia intestinalis G1; format: ADME, cell-based; details: read-out: Ratio IC50
[14] = system: Trypanosoma brucei rhodesiense; experiment: Antitrypanosomal activity against bloodstream form of Trypanosoma brucei rhodesiense STIB 900 after 70 hrs by resazurin-based spectrophotometric assay relative to melarsoprol; format: functional

Row | Structure (SMILES) | IC50 [1] [µM] | selectivity ratio [2] | IC50 [3] [µM] | IC50 [4] [µM] | IC50 [5] [µM] | IC50 [6] [µM] | IC50 [7] [µM] | IC50 [8] [µM] | selectivity ratio [9] | selectivity ratio [10] | inhibition [11] | selectivity ratio [12] | selectivity ratio [13] | Ratio IC50 [14]
1 | c1ccc(COc2ccc(-c3nc4ccccc4[nH]3)cc2)c(COc2ccc(-c3nc4ccccc4[nH]3)cc2)c1 | 2.33 | 17 | 0.34 | 1.32 | 6.07 | 5.89 | – | – | – | – | – | – | – | –
2 | c1cc(OCc2ccccc2COc2cccc(-c3nc4ccccc4[nH]3)c2)cc(-c2nc3ccccc3[nH]2)c1 | 3 | 20 | 0.34 | 2.66 | 2.53 | 7.02 | – | – | – | – | – | – | – | –
3 | c1cc(OCc2ccc(COc3cccc(-c4nc5ccccc5[nH]4)c3)cc2)cc(-c2nc3ccccc3[nH]2)c1 | 8.44 | 54 | 0.19 | 24 | 10.9 | 10.4 | – | – | – | – | – | – | – | –
4 | c1cc(OCCCCCCCCCCOc2cccc(-c3nc4ccccc4[nH]3)c2)cc(-c2nc3ccccc3[nH]2)c1 | 13.3 | 202 | 0.36 | 2.08 | 83.2 | 72.2 | 22.2 | 172 | – | – | – | – | – | –
5 | c1cc(COc2ccc(-c3nc4ccccc4[nH]3)cc2)cc(COc2ccc(-c3nc4ccccc4[nH]3)cc2)c1 | 1.05 | > 450 | 0.38 | 3.56 | 113 | > 172 | – | – | > 164 | – | – | – | – | –
6 | c1ccc2[nH]c(-c3ccc(OCCCOc4ccc(-c5nc6ccccc6[nH]5)cc4)cc3)nc2c1 | 2.67 | 13 | 0.28 | 1.5 | 3.91 | 3.56 | 3.37 | 0.74 | – | 1 | Active | – | – | –
7 | c1ccc2[nH]c(-c3ccc(OCCCCCOc4ccc(-c5nc6ccccc6[nH]5)cc4)cc3)nc2c1 | 0.8 | 26 | 0.27 | 1.02 | 2.42 | 6.82 | 22.7 | 0.82 | – | – | Active | – | – | –
8 | Cc1ncc([N+](=O)[O-])n1CCO [METRONIDAZOLE] | – | – | – | – | – | – | 5.82 | 1.56 | – | – | – | – | – | –
9 | c1cc(OCCCCCCCOc2cccc(-c3nc4ccccc4[nH]3)c2)cc(-c2nc3ccccc3[nH]2)c1 | 2.69 | 291 | 0.41 | 1.37 | 1.82 | 118 | 56.7 | 25.8 | – | – | Active | – | – | –
10 | c1ccc2[nH]c(-c3ccc(OCCCCCCOc4ccc(-c5nc6ccccc6[nH]5)cc4)cc3)nc2c1 | 6.59 | 40 | 0.24 | 7.22 | 6.05 | 9.61 | > 199 | 3.58 | – | – | Active | – | – | –
11 | c1ccc2[nH]c(-c3ccc(OCOc4ccc(-c5nc6ccccc6[nH]5)cc4)cc3)nc2c1 | 16.5 | 21 | 0.69 | 2.13 | 11.3 | 14.4 | – | – | – | – | – | – | – | –
12 | c1ccc2[nH]c(-c3ccc(OCCCCOc4ccc(-c5nc6ccccc6[nH]5)cc4)cc3)nc2c1 | 3.25 | 18 | 0.44 | 2.76 | 5.75 | 7.84 | 8.13 | 17.9 | – | 1 | Active | – | – | –
13 | c1cc(OCOc2cccc(-c3nc4ccccc4[nH]3)c2)cc(-c2nc3ccccc3[nH]2)c1 | 6.19 | 11 | 1.69 | 14.2 | 11.6 | 18.9 | – | – | – | – | – | – | – | –
14 | c1ccc2[nH]c(-c3ccc(OCCCCCCCCCCOc4ccc(-c5nc6ccccc6[nH]5)cc4)cc3)nc2c1 | 124 | 257 | 0.18 | 9.34 | 88.5 | 46 | 19.3 | 22.1 | – | – | – | – | – | –
15 | c1cc(OCCCOc2cccc(-c3nc4ccccc4[nH]3)c2)cc(-c2nc3ccccc3[nH]2)c1 | 3.91 | 4 | 2.41 | 8.01 | 8.92 | 9.82 | 78.3 | 56.1 | – | – | Active | – | – | –
16 | c1cc(OCCCCOc2cccc(-c3nc4ccccc4[nH]3)c2)cc(-c2nc3ccccc3[nH]2)c1 | 9.99 | 92 | 0.23 | 18.5 | 23.9 | 21.2 | 211 | 36 | – | – | Active | – | – | –
17 | c1cc(OCCCCCCOc2cccc(-c3nc4ccccc4[nH]3)c2)cc(-c2nc3ccccc3[nH]2)c1 | 2.57 | 29 | 0.28 | 2.37 | 3.88 | 7.98 | 73.7 | 17.7 | – | – | – | – | – | –
18 | c1cc(OCCCCCCCCCOc2cccc(-c3nc4ccccc4[nH]3)c2)cc(-c2nc3ccccc3[nH]2)c1 | 6.59 | 39 | 0.57 | 2.37 | 4.98 | 21.9 | 46.2 | 45.5 | – | – | – | – | – | –
19 | c1ccc2[nH]c(-c3ccc(OCCOc4ccc(-c5nc6ccccc6[nH]5)cc4)cc3)nc2c1 | > 202 | 13 | 2.01 | 154 | 133 | 25.4 | 191 | 124 | – | – | – | – | – | –
20 | c1ccc2[nH]c(-c3ccc(OCCCCCCCOc4ccc(-c5nc6ccccc6[nH]5)cc4)cc3)nc2c1 | 1.53 | 208 | 0.23 | 1.08 | 14.8 | 48.4 | 21.7 | 1.34 | – | – | Active | – | – | –
21 | c1ccc2[nH]c(-c3ccc(OCCCCCCCCCOc4ccc(-c5nc6ccccc6[nH]5)cc4)cc3)nc2c1 | 5.93 | 344 | 0.29 | 0.81 | > 165 | 101 | 30.7 | 0.83 | – | – | – | 123 | 123 | –
22 | c1cc(OCCCCCOc2cccc(-c3nc4ccccc4[nH]3)c2)cc(-c2nc3ccccc3[nH]2)c1 | 1.19 | 10 | 0.34 | 1.33 | 1.7 | 3.56 | 27.8 | 18.5 | – | – | – | – | – | –
23 | c1cc(OCCCCCCCCOc2cccc(-c3nc4ccccc4[nH]3)c2)cc(-c2nc3ccccc3[nH]2)c1 | 5.9 | 29 | 0.45 | 4.5 | 4.28 | 13.1 | 23.5 | 52.4 | – | – | – | – | – | –
24 | c1ccc2[nH]c(-c3ccc(OCc4ccc(COc5ccc(-c6nc7ccccc7[nH]6)cc5)cc4)cc3)nc2c1 | 0.8 | 70 | 0.23 | 2.12 | 26.3 | 16 | – | – | – | – | – | – | – | –
25 | c1cc(COc2cccc(-c3nc4ccccc4[nH]3)c2)cc(COc2cccc(-c3nc4ccccc4[nH]3)c2)c1 | 4.63 | 198 | 0.4 | 3.6 | 5.99 | 79.6 | – | – | – | – | – | – | – | –
26 | c1cc(OCCOc2cccc(-c3nc4ccccc4[nH]3)c2)cc(-c2nc3ccccc3[nH]2)c1 | 24.1 | 2 | 2.58 | 16.6 | 4.68 | 5.04 | 84 | 11.7 | – | – | Active | – | – | –
27 | O=C(Cn1ccnc1[N+](=O)[O-])NCc1ccccc1 [BENZNIDAZOLE] | – | – | – | – | 1.13 | – | – | – | – | – | – | – | – | –
28 | c1ccc2[nH]c(-c3ccc(OCCCCCCCCOc4ccc(-c5nc6ccccc6[nH]5)cc4)cc3)nc2c1 | 98.2 | 67 | 0.3 | 39.1 | 57 | 19.8 | 65.8 | 10.4 | – | – | – | – | – | 100
